Assay results taken from patent US6156762A, “Indolomorphinan derivative and agent for curing and preventing cerebral disorder” (Toray Industries, Inc., priority 1997, dated 2000).

Tests used:
[1] = test system: middle cerebral artery ischemia model of rat; assay: Infarction inhibiting action in middle cerebral artery ischemia (MCAo-recirculation) model of rat; format: in vivo; details: ip, 24 h, 3 mg/kg i.p. 10 minutes before occlusion and 1 hour after recirculation, infarction volume one day after, vs control group, read-out: Rate of inhibition of infarction
Description: It is also known that, in this way, in the acute stage of cerebral infarction, the lesion proceeds to the peripheral tissue from the core of infarction, and death of the nerve cells is extended with the passage of several days. This possible not only extends and creates grave aftereffects, and causes loss of motor and mental function, but also finally critically influences on the life. As an in vivo experimental model of cerebral infarction which is capable of precisely evaluating the clinical effect of a medicine in conformity with clinical conditions of the disease of a patient of cerebral infarction, the middle cerebral artery occlusion (MCAo)-recirculation model comprising an embolus with a yarn using Wister rates may be used [Document: Japan Journal of Stroke, vol. 8, 1 (1986)]. […] This action was evaluated by applying the MCAo model by the method which will be described below.
In rats of 10 weeks old, after etherization, a median incision of the cervical region was made up to the right carotid artery bifurcation under 1.0% halothane anesthetization with care to preserve the vagus nerves. The common carotid artery and the external carotid artery were separated from the periphery connective tissue with the right carotid artery bifurcation as the center, and each of the arteries was ligated by a 6-0 silk yarn (Eto yarn). Further, a yarn was wound on the internal carotid artery origin in preparation for ligation and fixing after insertion of the embolus. Next, the common carotid artery was incised, and the embolus was inserted from the common carotid artery to the internal carotid artery by about 15 to 16 mm, and ligated and fixed to the internal carotid artery by the silk yarn at the end thereof near the nylon yarn. In this operation, the end of the embolus was inserted into the anterior cerebral artery by about 1 to 2 mm beyond the middle cerebral artery bifurcation, and the inlet of the middle cerebral artery was occluded by the body (resin part) of the embolus for 1 hours. In recirculation, the embolus with a yarn was removed to recirculate the blood flow to the middle cerebral artery. 3 mg/kg of each of test compounds was intraperitoneally administered 10 minutes before occlusion and 1 hour after recirculation of the blood flow. One day after occlusion and recirculation, the whole body was perfused with physiologic saline through the heart, and the brain was extracted. The extracted brain was cooled with ice and water for 5 minutes, and cut at intervals of 2.0 mm to form 7 sections of the cerebral coronal surface. Each of the sections was stained with TTC (Triphenyltetrazolium Chloride), and fixed by a 5% neutral buffer formalin solution. In each of the sections, the infarction area in the right cerebral hemisphere was measured by an image analyzer (Olympus), and the infarction was evaluated by volume (mm^3). The infarction volume was compared with the infarction volume of a control group to calculate the rate of inhibition of infarction.

cultured nerve cells = assay: Action of protecting cultured nerve cells from glutamic acid toxicity (LDH leakage); format: cell-based, Wistar rat; details: rat fetal cerebral cortex cells, 10 mM glutamic acid, 24 hours, read-out: ED50 (the source's name)
Description: It is known that when the blood flow to the brain is temporarily clogged due to cerebral ischemia, hypoxia, or an trauma, delayed cerebral neuronal death is induced [Document: Brain Research, Vol. 239, 57 (1982)]. A possible cause of such damage of the cerebral nerve cells is excitatory toxicity due to an excitatory neutotransmitter such as glutamic acid or the like, which is excessively released with ischemia [Document: Trends in Neuroscience, vol. 10, 299 (1987)]. […] This is a problem to be solved by the invention. This action was evaluated by using the in vitro evaluation system which will be described below.
A fetus was taken from the abdomen of a Wistar female rat on the 18 to 19th day of pregnancy under aseptic conditions, and the head of the fetus was opened to extract the brain. The brain was placed in an ice-cooled L-15 medium, and the cerebral cortex was separated under a microscope. The cerebral cortexes of about 30 rats were cut into pieces, and then suspended in 10 ml of a 0.25% trypsin solution and 0.2 ml of a 0.01% DNase solution, followed by culture at 37° C. for 30 minutes. Then, 2 ml of serum was added to the solution, and immediately the resultant mixture was centrifuged at 120 rpm for 2 minutes to separate the precipitates. To the precipitates was added 7 ml of a DF medium (a medium obtained by adding 20 nM of transferrin, 5 μg/ml of insulin, 20 nM of progesterone,60 nM of selenite, 50 U/ml of penicillin, and 50 U/ml of streptomycin to a mixture equivalent amounts of Dulbecco modified Eagle medium and F-12 medium), followed by 20 pipetting operations using a 10-ml plastic pipette to obtain a cell suspension. The cell suspension was filtered with nylon mesh (pore diameter 43 μm) to fractionate isolated cells. The thus-obtained isolated cells were diluted with a DF medium to a concentration of 6.0×10^5 cells/ml, and 500 μl of the diluted cells was inoculated in each of the 48 wells of a 48-well culture plate precoated with polylysine, followed by culture at 37° C. for 1 day in the presence of 5% of CO2. On the 2nd day, the medium was changed to a new DF medium, and 10 μl of a solution of 0.5M glutamic acid in distilled water was added to each of the wells (the final glutamic acid concentration was 10 mM), followed by further culture at 37° C. for 24 hours in the presence 5% of CO2. A test compound was dissolved in distilled water, 10% or 100% DMSO or 10% methanol, and 5 μl of the solution was added to each of the wells immediately before glutamic acid was added. As an index of nerve cell damage, the enzyme activity of lactic acid dehydrogenase (LDH) leaking from the damaged cells into the medium was measured. For each of the test compounds, the LDH leakage was measured at each of concentrations to determine a dose-response curve by the modified Cochran-Armitige method. The 50% effective dose (ED50) of each of the test compounds we determined from the curve.

Oc1ccc2c3c1O[C@H]1c4[nH]c5cc(C6CCCCC6)ccc5c4C[C@@]4(O)[C@@H](C2)N(CC2CC2)CC[C@]314 [Compound 5, 17-cyclopropylmethyl-3,14β-dihydroxy-6,7-dehydro-4,5α-epoxy-6,7,2',3'-(6'-cyclohexylindolo)morphinan]
inhibition in vivo at 3 mg/kg [1]: 31%
EC50 (cultured nerve cells): 120 nM

O=C(NCCCn1c2c(c3ccccc31)C[C@@]1(O)[C@H]3Cc4ccc(O)c5c4[C@@]1(CCN3CC1CC1)[C@H]2O5)c1ccccc1 [Compound 61, 17-cyclopropylmethyl-3,14β-dihydroxy-6,7-dehydro-4,5α-epoxy-6,7,2',3'-[1'-(3-benzamidopropyl)indolo]morphinan]
inhibition in vivo at 3 mg/kg [1]: 29%
EC50 (cultured nerve cells): 140 nM

Cn1c2c(c3cc4c5c(cccc5c31)-c1ccccc1-4)C[C@@]1(O)[C@H]3Cc4ccc(O)c5c4[C@@]1(CCN3CC1CC1)[C@H]2O5 [Compound 77, 17-cyclopropylmethyl-3,14β-dihydroxy-6,7-dehydro-4,5α-epoxy-6,7,2',3'-(1'-methyl-5',6"-benzeno-6',7'-benzoindolo)morphinan]
inhibition in vivo at 3 mg/kg [1]: 84%
EC50 (cultured nerve cells): 160 nM

Oc1ccc2c3c1O[C@H]1c4[nH]c5c(cc6c7c(cccc75)-c5ccccc5-6)c4C[C@@]4(O)[C@@H](C2)N(CC2CC2)CC[C@]314 [Compound 19, 17-cyclopropylmethyl-3,14β-dihydroxy-6,7-dehydro-4,5α-epoxy-6,7,2',3'-(5',6"-benzeno-6',7'-benzoindolo)morphinan]
inhibition in vivo at 3 mg/kg [1]: 29%
EC50 (cultured nerve cells): 200 nM

Oc1ccc2c3c1O[C@H]1c4c(c5ccc6ccccc6c5n4CCc4ccccc4)C[C@@]4(O)[C@@H](C2)N(CC2CC2)CC[C@]314 [Compound 80, 17-cyclopropylmethyl-3,14β-dihydroxy-6,7-dehydro-4,5α-epoxy-6,7,2',3'-[1'-(2-phenylethyl)-6',7'-benzoindolo]morphinan]
inhibition in vivo at 3 mg/kg [1]: 29%
EC50 (cultured nerve cells): 37 nM

Oc1ccc2c3c1O[C@H]1c4[nH]c5c(cc(F)c6ccccc65)c4C[C@@]4(O)[C@@H](C2)N(CC2CC2)CC[C@]314 [Compound 14, 17-cyclopropylmethyl-3,14β-dihydroxy-6,7-dehydro-4,5α-epoxy-6,7,2',3'-(5'-fluoro-6',7'-benzoindolo)morphinan]
inhibition in vivo at 3 mg/kg [1]: 29%
EC50 (cultured nerve cells): 86 nM

CCCCCCCc1cccc2[nH]c3c(c12)C[C@@]1(O)[C@H]2Cc4ccc(O)c5c4[C@@]1(CCN2CC1CC1)[C@H]3O5 [Compound 6, 17-cyclopropylmethyl-3,14β-dihydroxy-6,7-dehydro-4,5α-epoxy-6,7,2',3'-(4'-heptylindolo)morphinan]
inhibition in vivo at 3 mg/kg [1]: 33%
EC50 (cultured nerve cells): 400 nM

Oc1ccc2c3c1O[C@H]1c4[nH]c5c(cc(Br)c6ccccc65)c4C[C@@]4(O)[C@@H](C2)N(CC2CC2)CC[C@]314 [Compound 9, 17-cyclopropylmethyl-3,14β-dihydroxy-6,7-dehydro-4,5α-epoxy-6,7,2',3'-(5'-bromo-6',7'-benzoindolo)morphinan]
inhibition in vivo at 3 mg/kg [1]: 9%
EC50 (cultured nerve cells): 110 nM

Oc1ccc2c3c1O[C@H]1c4[nH]c5c(cc6c7c(cccc75)CC6)c4C[C@@]4(O)[C@@H](C2)N(CC2CC2)CC[C@]314 [Compound 3, 17-cyclopropylmethyl-3,14β-dihydroxy-6,7-dehydro-4,5α-epoxy-6,7,2',3'-(5',6"-ethano-6',7'-benzoindolo)morphinan]
inhibition in vivo at 3 mg/kg [1]: 54%
EC50 (cultured nerve cells): 53 nM

O=C(NCCCn1c2c(c3ccc4ccccc4c31)C[C@@]1(O)[C@H]3Cc4ccc(O)c5c4[C@@]1(CCN3CC1CC1)[C@H]2O5)c1cccnc1 [Compound 66, 17-cyclopropylmethyl-3,14β-dihydroxy-6,7-dehydro-4,5α-epoxy-6,7,2',3'-[1'-(3-nicotinamidopropyl)-6',7'-benzoindolo]morphinan]
inhibition in vivo at 3 mg/kg [1]: 25%
EC50 (cultured nerve cells): 400 nM

Oc1ccc2c3c1O[C@H]1c4[nH]c5c(ccc6ccccc65)c4C[C@@]4(O)[C@@H](C2)N(CC2CC2)CC[C@]314 [Compound 2, 17-cyclopropylmethyl-3,14β-dihydroxy-6,7-dehydro-4,5α-epoxy-6,7,2',3'-(6',7'-benzoindolo)morphinan]
inhibition in vivo at 3 mg/kg [1]: 72%
EC50 (cultured nerve cells): 33 nM

O[C@@]12Cc3c([nH]c4c3ccc3ccccc34)[C@@H]3Oc4cccc5c4[C@@]31CCN(CC1CC1)[C@@H]2C5 [Compound 18, 17-cyclopropylmethyl-14β-hydroxy-6,7-dehydro-4,5α-epoxy-6,7,2',3'-(6',7'-benzoindolo)morphinan]
inhibition in vivo at 3 mg/kg [1]: 23%
EC50 (cultured nerve cells): 900 nM

Oc1ccc2c3c1O[C@H]1c4[nH]c5c(ccc6cccc(Cl)c65)c4C[C@@]4(O)[C@@H](C2)N(CC2CC2)CC[C@]314 [Compound 12, 17-cyclopropylmethyl-3,14β-dihydroxy-6,7-dehydro-4,5α-epoxy-6,7,2',3'-(3"-chloro-6',7'-benzoindolo)morphinan]
inhibition in vivo at 3 mg/kg [1]: 67%
EC50 (cultured nerve cells): 35 nM

Oc1ccc2c3c1O[C@H]1c4c(c5ccc6ccccc6c5n4CCCNC(=S)NCc4ccccc4)C[C@@]4(O)[C@@H](C2)N(CC2CC2)CC[C@]314 [Compound 67, 17-cyclopropylmethyl-3,14β-dihydroxy-6,7-dehydro-4,5α-epoxy-6,7,2',3'-[1'-[3-(N'-benzylthioureido)propyl]-6',7'-benzoindolo]morphinan]
inhibition in vivo at 3 mg/kg [1]: 39%
EC50 (cultured nerve cells): 27 nM

OCCn1c2c(c3ccc4ccccc4c31)C[C@@]1(O)[C@H]3Cc4ccc(O)c5c4[C@@]1(CCN3CC1CC1)[C@H]2O5 [Compound 81, 17-cyclopropylmethyl-3,14β-dihydroxy-6,7-dehydro-4,5α-epoxy-6,7,2',3'-[1'-(2-hydroxyethyl)-6',7'-benzoindolo]morphinan]
inhibition in vivo at 3 mg/kg [1]: 11%
EC50 (cultured nerve cells): 67 nM

Oc1ccc2c3c1O[C@H]1c4c(c5ccc6ccccc6c5n4Cc4ccccc4)C[C@@]4(O)[C@@H](C2)N(CC2CC2)CC[C@]314 [Compound 69, 17-cyclopropylmethyl-3,14β-dihydroxy-6,7-dehydro-4,5α-epoxy-6,7,2',3'-(1'-benzyl-6',7'-benzoindolo)morphinan]
inhibition in vivo at 3 mg/kg [1]: 69%
EC50 (cultured nerve cells): 9.3 nM

NCCCn1c2c(c3ccc4ccccc4c31)C[C@@]1(O)[C@H]3Cc4ccc(O)c5c4[C@@]1(CCN3CC1CC1)[C@H]2O5 [Compound 25, 17-cyclopropylmethyl-3,14β-dihydroxy-6,7-dehydro-4,5α-epoxy-6,7,2',3'-[1'-(3-aminopropyl)-6',7'-benzoindolo]morphinan]
inhibition in vivo at 3 mg/kg [1]: 15%
EC50 (cultured nerve cells): 300 nM
